The text below walks through data of paper PMC10804407, “Rombocin, a Short Stable Natural Nisin Variant, Displays Selective Antimicrobial Activity against Listeria monocytogenes and Employs a Dual Mode of Action to Kill Target Bacterial Strains” (ACS Synthetic Biology, 2024).

Data set [1] deals with E. faecium LMG16003 (VRE). The class given is cell-based, Enterococcus faecium. As to the method: (§1) Each experiment was performed in triplicate.
For the next data set, the system named is E. faecium LMG11423. Format: cell-based, Enterococcus faecium. As to the method:
as §1

Data set [2] deals with L. lactis. The data set is described as follows: Potassium ion efflux assay (PBFI probe). The class given is cell-based, Lactococcus lactis. The following applies: 5× MIC, 10 mM HEPES pH 7.2 with 0.5% glucose, 10 μM PBFI. The procedure:
To perform the K^+ release assay, we used the K^+-specific fluorescent probe PBFI. L. lactis was cultured in GM17 until the OD600 reached 0.6, after which the cells were harvested (5000g, 5 min) and washed twice with 10 mM HEPES (pH 7.2) with 0.5% glucose. The cells were then resuspended in the same buffer containing 10 μM PBFI. Data were analyzed using a Varioskan LUX Multimode Microplate Reader; cells were excited at 346 nm, and the fluorescence emission was measured at 505 nm to establish a baseline signal before the addition of 5-fold MIC antibiotics, after which data were collected. Nisin was used as a positive control.

The subject of a further data set is S. aureus LMG10147. The class given is cell-based, Staphylococcus aureus. As to the method:
as §1

The subject of data set [3] is S. aureus LMG15975 (MRSA). The class given is cell-based, Staphylococcus aureus. The procedure: as §1
For data set [4], the system named is L. monocytogenes LMG10470. Format: cell-based, Listeria monocytogenes. As to the method: as §1
The test system of a further data set is L. monocytogenes TT82E. Format: cell-based, Listeria monocytogenes. The procedure:
as §1

The next data set relates to L. monocytogenes LK132. The class given is cell-based, Listeria monocytogenes. As to the method:
as §1

In data set [5] the test system is E. faecalis LMG16216 (VRE). The class given is cell-based, Enterococcus faecalis. As to the method: as §1
In data set [6] the test system is trypsin, chymotrypsin, and proteinase K. The data set is described as follows: Stability against proteolytic enzymes by residual antimicrobial activity. The class given is in vitro ADME. The following applies: 40 μL peptide (1 mg/mL) with 1 mg/mL proteolytic enzymes, room temperature, 3 h; residual activity in agar well vs L. lactis 1363; triplicate. As to the method:
To investigate the impact of proteolytic enzymes, pH, and temperature on the antimicrobial activity, a representative strain of L. lactis 1363 was utilized. For the proteolytic enzyme assay, 40 μL of peptide (1 mg/mL) was incubated with or without final concentrations of 1 mg/mL proteolytic enzymes at room temperature for 3 h, followed by an activity test in the agar well. To determine pH stability, the pH was adjusted to 2, 4, 7, and 10 using 1 M HCl or NaOH. The temperature stability was assessed by incubating the peptide at 22, 50, 70, and 90 °C for a specified duration. All experiments were performed in triplicate.
Overnight cultures of the test strains were inoculated at a final concentration of 0.1% (v/v) into melted LB agar at 45 °C and then poured onto plates. After solidification, 8 mm wells were created and filled with 40 μL of the lantibiotic solution (1 mg/mL). The lantibiotics were activated by adding 5 μL of NisP directly to the well. The plates were then incubated overnight at 30 °C, and the zone of inhibition was measured. Zone diameters were calculated by subtracting the area of the well (πr^2) from the area of the zone (πr^2) and reported in millimeters. To determine the peptide concentration, purified and lyophilized peptides were resuspended in 0.05% aqueous acetic acid solution and quantified by HPLC following the protocol described by Schmitt et al.[44] […]

For data set [7], the system named is L. lactis. The data set is described as follows: Membrane potential determination (DiSC3(5) probe). Format: cell-based, Lactococcus lactis. The following applies: 5× MIC, 10 mM HEPES with 10 mM glucose pH 7.2, 2 μM DiSC3(5), 25 min. The procedure: To measure the membrane potential, the membrane potential-sensitive fluorescent dye DiSC3(5) was utilized. L. lactis was cultured to an OD600 of 0.8, pelleted at 5000g for 5 min, and washed twice in 10 mM HEPES with 10 mM glucose (pH 7.2). The cell density was adjusted to an OD600 of 0.2 and loaded with 2 μM DiSC3(5) dye, followed by 20 min of incubation in the dark to stabilize the probe fluorescence. Next, the cell suspension was added to a 96-well microplate and incubated for 5 min with 100 mM KCl. […] The fluorescence spectrometer’s excitation and emission wavelengths were adjusted to 622 and 670 nm, respectively. Three technical replicates were performed, and the representative example is shown.

In data set [8] the test system is L. lactis MG1363. The class given is cell-based, Lactococcus lactis. The procedure:
as §1

Another data set concerns Bacillus cereus CH-85. The class given is cell-based. As to the method: as §1
The subject of data set [9] is L. lactis. Briefly: Fluorescence microscopy assay of membrane integrity (SYTO 9 / propidium iodide). The class given is cell-based, Lactococcus lactis. The following applies: 5× MIC, 15 min / 20 min (method), room temperature. The procedure:
L. lactis was cultured until it reached an OD600 of 0.8 and then pelleted at 8000g for 5 min and washed three times in 0.7% NaCl. The cell density was normalized to an OD600 of 0.4 in 0.7% NaCl, and a concentration of 5-fold MIC value of each tested antibiotic was added to the cell suspension simultaneously with SYTO 9 and propidium iodide using the LIVE/DEAD Baclight Bacterial Viability Kit (Invitrogen). After incubation at room temperature for 20 min, the compounds were removed by washing the cells with 0.7% NaCl. Finally, the cell suspensions were loaded onto 1.5% agarose pads and analyzed with a DeltaVision Elite microscope (Applied Precision).

The subject of data set [10] is L. monocytogenes LMG10470. Briefly: Agar well diffusion assay and mutant-activity test. Format: cell-based, Listeria monocytogenes. The following applies: 40 μL of 1 mg/mL, zone of inhibition, triplicate. The procedure: Overnight cultures of the test strains were inoculated at a final concentration of 0.1% (v/v) into melted LB agar at 45 °C and then poured onto plates. After solidification, 8 mm wells were created and filled with 40 μL of the lantibiotic solution (1 mg/mL). The lantibiotics were activated by adding 5 μL of NisP directly to the well. The plates were then incubated overnight at 30 °C, and the zone of inhibition was measured. Zone diameters were calculated by subtracting the area of the well (πr^2) from the area of the zone (πr^2) and reported in millimeters. To determine the peptide concentration, purified and lyophilized peptides were resuspended in 0.05% aqueous acetic acid solution and quantified by HPLC following the protocol described by Schmitt et al.[44] All experiments were performed in triplicate.

Data set [11] has as its system L. lactis MG1363. The data set is described as follows: Time-kill assay. The class given is cell-based, Lactococcus lactis. The following applies: L. lactis, 5-fold MIC, time-dependent killing. As to the method:
The bactericidal activity of nisin, nisin(1–22), and rombocin was evaluated according to a previously described procedure based on Guo et al.[38] Briefly, an overnight culture of L. lactis MG1363 was diluted 50-fold in GM17 medium and incubated at 30 °C. The bacteria were grown until reaching an optical density at 600 nm (OD600) of 0.5, at which point the cell concentration was adjusted to 5 × 10^5 CFU/mL. Subsequently, the bacteria were challenged with a 5-fold MIC of each peptide. A control sample of an untreated cell suspension was included. At specific time points, 50 μL aliquots were collected, and undiluted and 10-fold serially diluted suspensions were plated on GM17 agar. The plates were incubated overnight at 30 °C, and the resulting colonies were counted and calculated as colony-forming units per milliliter (CFU/mL). Both assays were performed in triplicate to ensure reproducibility.

Converted amounts (≈) assume the structure as drawn. Read-outs that look alike come from different tables or passages of the source. Primed or numbered codes have the meaning given here. Where no end group is shown, it is not given here. [ ]: non-standard residue; d: D form. Dhb′ = not defined here; Dha = C=C(N)C(=O)O

On to `C=C(NC(=O)[C@@H](NC(=O)[C@H](Cc1c[nH]cn1)NC(=O)[C@@H](NC(=O)[C@H](CO)NC(=O)[C@@H]1CS[C@@H](C)[C@H]2NC(=O)[C@H](C)NC(=O)[C@H](NC(=O)[C@H](CCCCN)NC(=O)[C@H](CCSC)NC(=O)[C@H](CC(N)=O)NC(=O)[C@@H]3CS[C@@H](C)[C@@H](NC(=O)[C@H](CCCCN)NC(=O)[C@@H]4CS[C@@H](C)[C@@H](NC(=O)[C@@H]5CSC[C@@H](NC(=O)/C(=C/C)NC(=O)[C@@H](N)[C@@H](C)CC)C(=O)N[C@@H]([C@@H](C)CC)C(=O)NC(=C)C(=O)N[C@@H](CC(C)C)C(=O)N5)C(=O)N5CCC[C@H]5C(=O)NCC(=O)N4)C(=O)NCC(=O)N[C@@H](C)C(=O)N[C@@H](CC(C)C)C(=O)N[C@@H](CCSC)C(=O)NCC(=O)N3)[C@H](C)SC[C@H](NC2=O)C(=O)N[C@@H](CC(N)=O)C(=O)N1)[C@@H](C)CC)C(C)C)C(=O)N[C@@H](CCCCN)C(=O)O` [nisin Z, reference compound], for which the MIC is reported as 3,13 μg/mL in data set [1] (E. faecium LMG16003 (VRE), broth microdilution, no visible growth, triplicate); 3,13 μg/mL in the data set with E. faecium LMG11423 (E. faecium LMG11423, broth microdilution, no visible growth, triplicate); 6,25 μg/mL in the data set with S. aureus LMG10147 (S. aureus LMG10147, broth microdilution, no visible growth, triplicate); 6,25 μg/mL in data set [3] (S. aureus LMG15975 (MRSA), broth microdilution, no visible growth, triplicate); 3,13 μg/mL in data set [4] (L. monocytogenes LMG10470, broth microdilution, no visible growth, triplicate); 1,56 μg/mL against L. monocytogenes TT82E (L. monocytogenes TT82E, broth microdilution, no visible growth, triplicate). For the same compound, the MIC in the data set on L. monocytogenes LK132 (L. monocytogenes LK132, broth microdilution, no visible growth, triplicate) is recorded as 12,5 μg/mL; in [5] (E. faecalis LMG16216 (VRE), broth microdilution, no visible growth, triplicate) it was 3,13 μg/mL; with L. lactis MG1363 [8] (L. lactis MG1363, broth microdilution, lowest concentration with no visible growth, triplicate), 0,02 μg/mL; in the data set on Bacillus cereus CH-85 (Bacillus cereus CH-85, broth microdilution, no visible growth, triplicate) it was 6,25 μg/mL. The “fold higher antimicrobial activity of nisin than rombocin A (MIC)” value in the data set on E. faecium LMG11423 (against Enterococcus faecium (strain not given)) was 32 times. The “release of intracellular potassium ions (PBFI fluorescence)” value with L. lactis [2] is reported as “immediate increase in signal”. Moreover, the “fold lower MIC of nisin than rombocin A” value in the data set on S. aureus LMG10147 (against S. aureus (strain not given)) was 16 fold; in the data set on L. monocytogenes LK132 (against L. monocytogenes LK132), 2 fold; in data set [5] (against Enterococcus faecalis), 16 fold; with Bacillus cereus CH-85 (against Bacillus cereus), 4 fold. Moreover, the “resistance to proteolytic enzymes” value in [6] is “varying stability”. Moreover, in the data set with L. lactis [7], the “membrane depolarization (DiSC3(5) fluorescence)” value is “significant membrane depolarization, similar to nisin”. The “fold lower MIC of nisin than that of rombocin” value with L. lactis MG1363 [8] (against L. lactis) came out at 40 times. In addition, the “membrane integrity (SYTO 9 / propidium iodide fluorescence)” value in the data set with L. lactis [9] is on record as “membrane disruption”.

With `C=C1NC(=O)[C@H]([C@@H](C)CC)NC(=O)[C@H](NC(=O)/C(=C/C)NC(=O)[C@@H](N)[C@@H](C)CC)CSC[C@@H](C(=O)N[C@H]2C(=O)N[C@@H](C)C(=O)NCC(=O)N[C@H](C(=O)N[C@@H](CCCCN)C(=O)N[C@H]3C(=O)NCC(=O)N[C@@H](C(C)C)C(=O)N[C@@H]([C@@H](C)CC)C(=O)N[C@@H](CCSC)C(=O)N/C(=C\C)C(=O)N[C@H](C(=O)N[C@@H](CCSC)C(=O)N[C@@H]4CSC[C@@H](C(=O)N[C@@H](CCCCN)C(=O)O)NC(=O)CNC(=O)[C@H](CC(N)=O)NC4=O)CS[C@H]3C)CS[C@H]2C)NC(=O)[C@H](CC(C)C)NC1=O` [rombocin K], the MIC in [1] (LMG16003) is 50 µg/mL (≈ 20.9 µM); in the data set with E. faecium LMG11423 (LMG11423), 50 µg/mL (≈ 20.9 µM); against S. aureus LMG10147 (LMG10147), 100 µg/mL (≈ 41.7 µM); in [3] (LMG15975), 100 µg/mL (≈ 41.7 µM); in data set [4] (LMG10470) it was 12,5 μg/mL; in the data set with L. monocytogenes TT82E (TT82E) it was 6,25 μg/mL. Further, the MIC against L. monocytogenes LK132 (LK132) is 12,5 μg/mL; in data set [5] (LMG16216), 50 µg/mL (≈ 20.9 µM); with L. lactis MG1363 [8] (MG1363), 0,78 μg/mL; in the data set with Bacillus cereus CH-85 (CH-85), 25 µg/mL (≈ 10.4 µM). Further, in [4] (against all tested Listeria strains), the “fold lower MIC compared to the wild-type rombocin” value worked out at 2 fold. The “increase in antimicrobial activity relative to wild-type rombocin” value in data set [10] was 13%.

With “nisin(1–22): truncated nisin variant, bacteriostatic control that only binds lipid II (I[Dhb′]SI[Dha]LCTPGCKTGALMGCNMK; also: lantibiotic: thioether rings and dehydrated residues not placed; UniProt P13068 24-45, looked up, fragment)”, in the data set on L. lactis [2], the “release of intracellular potassium ions (PBFI fluorescence)” value is given as “did not have this effect”. Moreover, the “bacteriostatic or bactericidal activity” value in the data set on L. lactis MG1363 [11] is on record as “bacteriostatic effect”. The “membrane depolarization (DiSC3(5) fluorescence)” value in the data set on L. lactis [7] is reported as “did not”. The “membrane integrity (SYTO 9 / propidium iodide fluorescence)” value with L. lactis [9] was “did not cause any significant membrane disruption”.

Usually MIC stands for the smallest concentration in the dilution series that meets the test's criterion for growth inhibition.
